In patent US11986465B1, “2-amino-4-(4-bromophenyl)-6-ethoxypyridine-3,5-dicarbonitrile as an antibacterial compound” (KING FAISAL UNIVERSITY, priority 2023, dated 2024):

What was measured:
Type in all cases: cell-based
[1] = test system: Escherichia coli; experiment: Agar plate disc-diffusion antibacterial test, Escherichia coli; settings: Gram negative
Protocol: (§1) The agar plate disc-diffusion method was applied. […] The discs were then placed onto the surface of agar plates (nutrient agar for bacteria) seeded with the test organism. Each plate contained 15 mL of the agar medium, previously seeded with 0.2 mL of the broth culture of each organism pregrown for 18 hours. The inhibition zones were measured in millimeters (mm). Discs impregnated with DMSO were used as a control, and its inhibition zone was subtracted from the tested compound's actual inhibition zone.
(§2) The antibacterial activity was screened against gram positive bacteria namely Bacillus cereus and Staphylococcus aureus and gram-negative bacterial strains namely Pseudomonas aeruginosa and Escherichia coli using ciprofloxacin as a reference, as shown in Table 1.

[2] = test system: Bacillus cereus; experiment: Agar plate disc-diffusion antibacterial test, Bacillus cereus; settings: Gram positive
Protocol: as §1, §2

[3] = test system: Pseudomonas aeruginosa; experiment: Agar plate disc-diffusion antibacterial test, Pseudomonas aeruginosa; settings: Gram negative
Protocol: as §1, §2

[4] = test system: Staphylococcus aureus; experiment: Agar plate disc-diffusion antibacterial test, Staphylococcus aureus; settings: Gram positive
Protocol: as §1, §2

[5] = A = concentration of comp. = 10,000 μL
[6] = B = concentration of comp. = 30.000 μL
[7] = C = concentration of comp. = 50,000 μL

CCOc1nc(N)c(C#N)c(-c2ccc(Br)cc2)c1C#N [Compound 3, 2-amino-4-(4-bromophenyl)-6-ethoxypyridine-3,5-dicarbonitrile]
inhibition zone, Escherichia coli, A [1, 5]: 37 mm
inhibition zone, Escherichia coli, B [1, 6]: 40 mm
inhibition zone, Escherichia coli, C [1, 7]: 44 mm
inhibition zone, Bacillus Cereus, A [2, 5]: 30 mm
inhibition zone, Bacillus Cereus, B [2, 6]: 36 mm
inhibition zone, Bacillus Cereus, C [2, 7]: 41 mm
inhibition zone, Pseudomonas aeruginosa, A [3, 5]: 23 mm
inhibition zone, Pseudomonas aeruginosa, B [3, 6]: 33 mm
inhibition zone, Pseudomonas aeruginosa, C [3, 7]: 39 mm
inhibition zone, Staphylococcus aureus, A [4, 5]: 19 mm
inhibition zone, Staphylococcus aureus, B [4, 6]: 26 mm
inhibition zone, Staphylococcus aureus, C [4, 7]: 31 mm
